Laboratory results taken from patent US9546157B2, “Asymmetric piperidinyl-substituted ureas as medicines” (Helsinn Healthcare SA, priority 2014, dated 2017).

Tests used:
C57BL/6J mice = test: Food intake test in mouse (GHSR1a antagonists); assay type: in vivo
Method: Male C57BL/6J mice, 18-22 g body weight, were fasted overnight (16 h before compound administration) and placed in a regular light dark cycle (6:00-18:00 light/18:00-6:00 dark). After 1 wk acclimation, animals were sorted into two groups (n=6 each, 2 per cage) based on body weight. Animals in group one were be treated with vehicle and animals in group 2 were treated with the test agent (n=6 for each group). The cumulative food intake was evaluated at 1, 2, 4, 8 and 24 hrs after drug or vehicle treatment. Food intake was measured by subtracting uneaten food from the initial premeasured food.

[1] = Metabolic Stability (M = Mouse); assay type: in vitro ADME
[2] = Metabolic Stability (H = Human); assay type: in vitro ADME
GHSR1a [3] = target: T1, GHSR1a (Homo sapiens, UniProt Q92847); test: Calcium FLIPR assay, GHSR-1a antagonism (reduction of ghrelin response); assay type: cell-based; details: HEK293/GHSR1a cells, ghrelin 10 nM
T1 construct: expressed in transfected cells; host or cells: HEK293
T1 sequence (Q92847 whole entry): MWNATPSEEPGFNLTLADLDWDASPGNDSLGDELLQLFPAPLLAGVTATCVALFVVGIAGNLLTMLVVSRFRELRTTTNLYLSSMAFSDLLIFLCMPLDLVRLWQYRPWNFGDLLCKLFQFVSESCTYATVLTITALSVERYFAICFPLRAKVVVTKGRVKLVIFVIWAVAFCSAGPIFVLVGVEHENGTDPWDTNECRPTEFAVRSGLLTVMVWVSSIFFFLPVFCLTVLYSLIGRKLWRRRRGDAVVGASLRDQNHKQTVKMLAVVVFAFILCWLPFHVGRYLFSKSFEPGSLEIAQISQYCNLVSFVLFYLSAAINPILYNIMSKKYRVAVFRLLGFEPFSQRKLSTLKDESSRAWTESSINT
Outline: (§1)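 Antagonist potency reflects lowering of the 10 nM ghrelin calcium signal in HEK293/GHSR1a cells, with compound and ghrelin given at t=20 sec. Agonism was scored from the 2-minute fluorescence response to compound alone.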

GHSR1a [4] = target: T1, GHSR1a; test: Calcium FLIPR assay, GHSR-1a agonism; assay type: cell-based; parameters: Emax: unit not given here; details: HEK293/GHSR1a cells
Outline: as §1

[5] = Mus musculus, ip, 1 h, i.p. 30 mg/kg
[6] = Mus musculus, ip, 1 h, i.p. 10 mg/kg

## C[C@H](NC(=O)N(C)C1CCN(C)C1)c1ccc(-c2cnccn2)c(Cl)c1Cl (single isomer, unassigned) [Compound H0862]
C57BL/6J mice; PO (10 mg/kg) + ANA, mice, ANA dose not given
  Mouse Food Intake, result in words: PO (10 mg/kg) + ANA: no activity in mice
[1]
  Metabolic Stability M: medium
[2]
  Metabolic Stability H: High
GHSR1a [3]
  IC50: 3 nM
GHSR1a [4]
  EC50: > 30000 nM

## CC(NC(=O)N(C)C1CCN(C)CC1)c1ccc(Cl)c(Cl)c1Cl (stereo not drawn) [Compound H0381, 1-methyl-1-(1-methylpiperidin-4-yl)-3-(1-(2,3,4-trichlorophenyl)ethyl)urea]
C57BL/6J mice; i.p., dose not given
  Mouse Food Intake, result in words: IP: No effect
[1]
  Metabolic Stability M: Meidum
[2]
  Metabolic Stability H: Medium
GHSR1a [3]
  IC50: 12 nM
GHSR1a [4]
  EC50: > 30000 nM

## CC(NC(=O)N(C)C1CCN(C)CC1)c1ccc(C2CC2)c(Cl)c1Cl (stereo not drawn) [Compound H0494, 3-(1-(2,3-dichloro-4-cyclopropylphenyl)ethyl)-1-methyl-1-(1-methylpiperidin-4-yl)urea]
C57BL/6J mice; i.p., dose not given
  Mouse Food Intake, result in words: No Effect
[1]
  Metabolic Stability M: High
[2]
  Metabolic Stability H: Medium
GHSR1a [3]
  IC50: 52 nM
GHSR1a [4]
  EC50: 66 nM
  Emax: 2996

## CC(NC(=O)N(C)C1CCN(C)CC1)c1ccc(-c2cccnc2)c(Cl)c1Cl (stereo not drawn) [Compound H0496, 3-(1-(2,3-dichloro-4-(pyridin-3-yl)phenyl)ethyl)-1-methyl-1-(1-methylpiperidin-4-yl)urea]
C57BL/6J mice; i.p. 10 mg/kg
  Mouse Food Intake, result in words: NSE (10 mg/kg)
[1]
  Metabolic Stability M: High
[2]
  Metabolic Stability H: Medium
GHSR1a [3]
  IC50: 10 nM
GHSR1a [4]
  EC50: > 30000 nM

## CC(NC(=O)N(C)C1CCN(C)CC1)c1ccc(-c2ccncc2)c(Cl)c1Cl (stereo not drawn) [Compound H0497, 3-(1-(2,3-dichloro-4-(pyridin-4-yl)phenyl)ethyl)-1-methyl-1-(1-methylpiperidin-4-yl)urea]
C57BL/6J mice; i.p. 30 mg/kg
  Mouse Food Intake, result in words: NSE (30 mg/kg)
[1]
  Metabolic Stability M: Medium H Medium M
[2]
  Metabolic Stability H: Medium H Medium M
GHSR1a [3]
  IC50: 24 nM
GHSR1a [4]
  EC50: > 30000 nM

## CC(NC(=O)N(C)C1CCN(C)CC1)c1ccc(-c2ccsc2)c(Cl)c1Cl (stereo not drawn) [Compound H0498, 3-(1-(2,3-dichloro-4-(thiophen-3-yl)phenyl)ethyl)-1-methyl-1-(1-methylpiperidin-4-yl)urea]
C57BL/6J mice; [5]
  inhibition in vivo at 30 mg/kg: 76%
[1]
  Metabolic Stability M: High
[2]
  Metabolic Stability H: Medium
GHSR1a [3]
  IC50: 29 nM
GHSR1a [4]
  EC50: > 30000 nM

## CC(NC(=O)N(C)C1CCN(C)CC1)c1ccc(-c2cn[nH]c2)c(Cl)c1Cl (stereo not drawn) [Compound H0499, 3-(1-(2,3-dichloro-4-(1H-pyrazol-4-yl)phenyl)ethyl)-1-methyl-1-(1-methylpiperidin-4-yl)urea]
C57BL/6J mice; i.p. 30 mg/kg
  Mouse Food Intake, result in words: NSE (30 mg/kg)
[1]
  Metabolic Stability M: Medium H Medium M
[2]
  Metabolic Stability H: Medium H Medium M
GHSR1a [3]
  IC50: 12 nM
GHSR1a [4]
  EC50: > 30000 nM

## CC(NC(=O)N(C)C1CCN(C)CC1)c1ccc(-c2ccccc2)c(Cl)c1Cl (stereo not drawn) [Compound H0509, 3-(1-(2,3-dichloro-[1,1′-biphenyl]-4-yl)ethyl)-1-methyl-1-(1-methylpiperidin-4-yl)urea]
C57BL/6J mice; [6]
  inhibition in vivo at 10 mg/kg: 66%
[1]
  Metabolic Stability M: High H High M
[2]
  Metabolic Stability H: High H High M
GHSR1a [3]
  IC50: 29 nM
GHSR1a [4]
  EC50: 2000 nM
  Emax: 1790

## CC(NC(=O)N(C)C1CCN(C)CC1)c1ccc(-c2cccc(N)c2)c(Cl)c1Cl (stereo not drawn) [Compound H0510, 3-(1-(3′-amino-2,3-dichloro-[1,1′-biphenyl]-4-yl)ethyl)-1-methyl-1-(1-methylpiperidin-4-yl)urea]
C57BL/6J mice; Mus musculus, ip, 4 h, i.p. 30 mg/kg
  inhibition in vivo at 30 mg/kg: 35%
[1]
  Metabolic Stability M: High H High M
[2]
  Metabolic Stability H: High H High M
GHSR1a [3]
  IC50: 14 nM
GHSR1a [4]
  EC50: > 30000 nM

## COc1ccc(-c2ccc(C(C)NC(=O)N(C)C3CCN(C)CC3)c(Cl)c2Cl)cn1 (stereo not drawn) [Compound H0511, 3-(1-(2,3-dichloro-4-(6-methoxypyridin-3-yl)phenyl)ethyl)-1-methyl-1-(1-methylpiepridin-4-yl)urea]
C57BL/6J mice; [5]
  inhibition in vivo at 30 mg/kg: 94%
[1]
  Metabolic Stability M: Medium H Medium M
[2]
  Metabolic Stability H: Medium H Medium M
GHSR1a [3]
  IC50: 98 nM
GHSR1a [4]
  EC50: > 30000 nM

## CC(NC(=O)N(C)C1CCN(C)CC1)c1ccc(-c2cncnc2)c(Cl)c1Cl (stereo not drawn) [Compound H0516, 3-(1-(2,3-dichloro-4-(pyrimidin-5-yl)phenyl)ethyl)-1-methyl-1-(1-methylpiperidin-4-yl)urea]
C57BL/6J mice; [5]
  inhibition in vivo at 30 mg/kg: 88%
C57BL/6J mice; PO, dose not given
  Mouse Food Intake, result in words: no effect
[1]
  Metabolic Stability M: High H High M
[2]
  Metabolic Stability H: High H High M
GHSR1a [3]
  IC50: 41 nM
GHSR1a [4]
  EC50: > 30000 nM

## CC(NC(=O)N(C)C1CCN(C)CC1)c1ccc(-c2cccs2)c(Cl)c1Cl (stereo not drawn) [Compound H0536, 3-(1-(2,3-dichloro-4-(thiophen-2-yl)phenyl)ethyl)-1-methyl-1-(1-methylpiperidin-4-yl)urea]
C57BL/6J mice; [5]
  inhibition in vivo at 30 mg/kg: 76%
[1]
  Metabolic Stability M: Medium H Medium M
[2]
  Metabolic Stability H: Medium H Medium M
GHSR1a [3]
  IC50: 3 nM
GHSR1a [4]
  EC50: > 30000 nM

## CC(NC(=O)N(Cc1ccc(CO)cc1)C1CCN(C)CC1)c1ccc(-c2cn[nH]c2)c(Cl)c1Cl (stereo not drawn) [Compound H0553, 3-(1-(2,3-dichloro-4-(1H-pyrazol-4-yl)phenyl)ethyl)-1-(4-(hydroxymethyl)benzyl)-1-(1-methylpiperidin-4-yl)urea]
C57BL/6J mice; [6]
  inhibition in vivo at 10 mg/kg: 57%
[1]
  Metabolic Stability M: Poor
[2]
  Metabolic Stability H: Medium
GHSR1a [3]
  IC50: 7 nM
GHSR1a [4]
  EC50: > 30000 nM

## CC(NC(=O)N(C)C1CCN(C)CC1)c1ccc(Br)c2ccccc12 (stereo not drawn) [Compound H0573, 3-(1-(4-bromonaphthalen-1-yl)ethyl)-1-methyl-1-(1-methylpiperidin-4-yl)urea]
C57BL/6J mice; PO 30 mg/kg
  Mouse Food Intake, result in words: PO: NSE (30 mg/kg)
[1]
  Metabolic Stability M: Medium
[2]
  Metabolic Stability H: High
GHSR1a [3]
  IC50: 36 nM
GHSR1a [4]
  EC50: > 30000 nM

## Cc1noc(-c2ccc(C(C)NC(=O)N(C)C3CCN(C)CC3)c(Cl)c2Cl)n1 (stereo not drawn) [Compound H0596, 3-(1-(2,3-dichloro-4-(3-methyl-1,2,4-oxadiazol-5-yl)phenyl)ethyl)-1-methyl-1-(1-methylpiperidin-4-yl)urea]
C57BL/6J mice; i.p. 10 mg/kg
  Mouse Food Intake, result in words: NSE (10 mg/kg)
[1]
  Metabolic Stability M: High H High M
[2]
  Metabolic Stability H: High H High M
GHSR1a [3]
  IC50: 9 nM
GHSR1a [4]
  EC50: 3 nM

## C#Cc1ccc(C(C)NC(=O)N(C)C2CCN(C)CC2)c(Cl)c1Cl (stereo not drawn) [Compound H0603, 3-(1-(2,3-dichloro-4-ethynylphenyl)ethyl)-1-methyl-1-(1-methylpiperidin-4-yl)urea]
C57BL/6J mice; [6]
  inhibition in vivo at 10 mg/kg: 34%
C57BL/6J mice; Mus musculus, ip, 1 h, i.p. 0.1 mpk
  inhibition in vivo at 0.1 mg/kg: 71%
C57BL/6J mice; Mus musculus, ip, 1 h, i.p. 1 mpk
  inhibition in vivo at 1 mg/kg: 65%
C57BL/6J mice; SC, dose not given
  Mouse Food Intake, result in words: SC NSE
C57BL/6J mice; i.p. 1 mpk
  Mouse Food Intake inhibition, activity up to: ≤ 24 h
[1]
  Metabolic Stability M: High H High M
[2]
  Metabolic Stability H: High H High M
GHSR1a [3]
  IC50: 2 nM
GHSR1a [4]
  EC50: > 30000 nM

## COc1cncc(-c2ccc(C(C)NC(=O)N(C)C3CCN(C)CC3)c(Cl)c2Cl)c1 (stereo not drawn) [Compound H0607, 3-(1-(2,3-dichloro-4-(5-methoxypyridin-3-yl)phenyl)ethyl)-1-methyl-1-(1-methylpiperidin-4-yl)urea]
C57BL/6J mice; i.p. 10 mg/kg
  Mouse Food Intake, result in words: NSE (10 mg/kg)
[1]
  Metabolic Stability M: Medium H Medium M
[2]
  Metabolic Stability H: Medium H Medium M
GHSR1a [3]
  IC50: 6 nM
GHSR1a [4]
  EC50: 31 nM
  Emax: 3000
